Numbers after ± are expanded uncertainties.
Legend:
[1] = xn = mol fraction of the nth substance listed; settings: 298.15 K, Liquid
[2] = excess molar enthalpy (molar enthalpy of mixing); xn = mol fraction of the nth substance listed; settings: 298.15 K, 101 kPa, Liquid
[3] = refractive index (Na D-line) (dimensionless); xn = mol fraction of the nth substance listed; settings: 298.15 K, 101.3 kPa, Liquid, Standard Abbe refractometry
[4] = 298.15 K; 101.33 kPa; Liquid
[5] = refractive index (Na D-line) (dimensionless); settings: 298.15 K; 101.33 kPa; Liquid; Standard Abbe refractometry

With CCCCCC [hexane] + Cc1ccccc1 as the compound, how does the mass density ([1]; 101 kPa, x1 = 0.0524) read?
The mass density was 848.99 ± 0.37 kg/m3.

And the mass density ([1]; 101 kPa, x1 = 0.0926)?
Its mass density is 839.12 ± 0.39 kg/m3.

And the mass density ([1]; 101 kPa, x1 = 0.1636)?
The mass density was 822.1 ± 0.41 kg/m3.

What about the mass density ([1]; 101 kPa, x1 = 0.2011) of the same compound?
Its mass density is 813.3 ± 0.43 kg/m3.

And the mass density ([1]; 101 kPa, x1 = 0.2475)?
Its mass density is 802.64 ± 0.45 kg/m3.

What about the mass density ([1]; 101 kPa, x1 = 0.3184) of the same compound?
The mass density was 786.7 ± 0.48 kg/m3.

What about the mass density ([1]; 101 kPa, x1 = 0.4088) of the same compound?
The mass density was 767.06 ± 0.51 kg/m3.

And the mass density ([1]; 101 kPa, x1 = 0.4739)?
Its mass density is 753.36 ± 0.53 kg/m3.

And the mass density ([1]; 101 kPa, x1 = 0.5096)?
The mass density was 746 ± 0.55 kg/m3.

What about the mass density ([1]; 101 kPa, x1 = 0.5734) of the same compound?
Its mass density is 733.08 ± 0.56 kg/m3.

And the mass density ([1]; 101 kPa, x1 = 0.6086)?
The mass density was 726.13 ± 0.57 kg/m3.

What about the mass density ([1]; 101 kPa, x1 = 0.6754) of the same compound?
Its mass density is 713.16 ± 0.59 kg/m3.

What about the mass density ([1]; 101 kPa, x1 = 0.7338) of the same compound?
Its mass density is 702.09 ± 0.61 kg/m3.

What about the mass density ([1]; 101 kPa, x1 = 0.7827) of the same compound?
Its mass density is 693.01 ± 0.62 kg/m3.

And the mass density ([1]; 101 kPa, x1 = 0.8426)?
The mass density was 682.13 ± 0.64 kg/m3.

What about the mass density ([1]; 101 kPa, x1 = 0.9055) of the same compound?
Its mass density is 670.97 ± 0.66 kg/m3.

What about the mass density ([1]; 101 kPa, x1 = 0.9323) of the same compound?
Its mass density is 666.29 ± 0.67 kg/m3.

And the excess molar enthalpy ([2]; x1 = 0.0525)?
The excess molar enthalpy was 0.123 ± 0.004 kJ/mol.

And the excess molar enthalpy ([2]; x1 = 0.0957)?
Its excess molar enthalpy is 0.212 ± 0.0061 kJ/mol.

What about the excess molar enthalpy ([2]; x1 = 0.1586) of the same compound?
The excess molar enthalpy was 0.316 ± 0.0086 kJ/mol.

And the excess molar enthalpy ([2]; x1 = 0.2119)?
Its excess molar enthalpy is 0.391 ± 0.011 kJ/mol.

And the excess molar enthalpy ([2]; x1 = 0.2672)?
Its excess molar enthalpy is 0.457 ± 0.012 kJ/mol.

What about the excess molar enthalpy ([2]; x1 = 0.3135) of the same compound?
Its excess molar enthalpy is 0.494 ± 0.013 kJ/mol.

What about the excess molar enthalpy ([2]; x1 = 0.3766) of the same compound?
The excess molar enthalpy was 0.528 ± 0.014 kJ/mol.

What about the excess molar enthalpy ([2]; x1 = 0.4264) of the same compound?
Its excess molar enthalpy is 0.543 ± 0.014 kJ/mol.

What about the excess molar enthalpy ([2]; x1 = 0.4723) of the same compound?
Its excess molar enthalpy is 0.547 ± 0.014 kJ/mol.

What about the excess molar enthalpy ([2]; x1 = 0.5414) of the same compound?
Its excess molar enthalpy is 0.534 ± 0.014 kJ/mol.

And the excess molar enthalpy ([2]; x1 = 0.6641)?
Its excess molar enthalpy is 0.48 ± 0.013 kJ/mol.

And the excess molar enthalpy ([2]; x1 = 0.6927)?
Its excess molar enthalpy is 0.456 ± 0.012 kJ/mol.

And the excess molar enthalpy ([2]; x1 = 0.7484)?
Its excess molar enthalpy is 0.393 ± 0.011 kJ/mol.

What about the excess molar enthalpy ([2]; x1 = 0.8045) of the same compound?
The excess molar enthalpy was 0.326 ± 0.0089 kJ/mol.

And the excess molar enthalpy ([2]; x1 = 0.8657)?
The excess molar enthalpy was 0.241 ± 0.0068 kJ/mol.

What about the excess molar enthalpy ([2]; x1 = 0.9023) of the same compound?
The excess molar enthalpy was 0.183 ± 0.0054 kJ/mol.

What about the refractive index ([3]; x1 = 0.0543) of the same compound?
The refractive index was 1.486 ± 0.0007.

What about the refractive index ([3]; x1 = 0.0958) of the same compound?
The refractive index was 1.4801 ± 0.0007.

What about the refractive index ([3]; x1 = 0.1667) of the same compound?
Its refractive index is 1.4701 ± 0.0007.

And the refractive index ([3]; x1 = 0.2129)?
The refractive index was 1.4637 ± 0.0007.

And the refractive index ([3]; x1 = 0.2818)?
Its refractive index is 1.4541 ± 0.0007.

What about the refractive index ([3]; x1 = 0.3261) of the same compound?
The refractive index was 1.4482 ± 0.0007.

What about the refractive index ([3]; x1 = 0.3762) of the same compound?
Its refractive index is 1.4417 ± 0.0007.

And the refractive index ([3]; x1 = 0.4262)?
Its refractive index is 1.4353 ± 0.0007.

And the refractive index ([3]; x1 = 0.4769)?
The refractive index was 1.429 ± 0.0007.

What about the refractive index ([3]; x1 = 0.5136) of the same compound?
The refractive index was 1.4246 ± 0.0007.

And the refractive index ([3]; x1 = 0.5742)?
The refractive index was 1.4174 ± 0.0007.

What about the refractive index ([3]; x1 = 0.6327) of the same compound?
The refractive index was 1.4107 ± 0.0007.

And the refractive index ([3]; x1 = 0.6862)?
The refractive index was 1.4047 ± 0.0007.

And the refractive index ([3]; x1 = 0.7402)?
The refractive index was 1.3987 ± 0.0007.

And the refractive index ([3]; x1 = 0.7958)?
The refractive index was 1.3927 ± 0.0007.

What about the refractive index ([3]; x1 = 0.8548) of the same compound?
Its refractive index is 1.3866 ± 0.0007.

And the refractive index ([3]; x1 = 0.9106)?
Its refractive index is 1.381 ± 0.0007.

What about the refractive index ([3]; x1 = 0.9409) of the same compound?
Its refractive index is 1.378 ± 0.0007.

Which mass density [4] does the source give for CCCOC(=O)CC [propyl propanoate] here?
The mass density was 875.48 ± 0.64 kg/m3.

And the refractive index [5]?
The refractive index was 1.3906 ± 0.0004.

What does the source list for CCCCCC [hexane]?
mass density [4]: 654.68 ± 0.7 kg/m3; refractive index [5]: 1.3723 ± 0.0004

Which results are given for Cc1ccccc1 [toluene]?
mass density [4]: 862.11 ± 0.18 kg/m3; refractive index [5]: 1.4941 ± 0.0004

Which mass density ([1]; 101.3 kPa, x1 = 0.0625) does the source give for CCCOC(=O)CC [propyl propanoate] + Cc1ccccc1 here?
The mass density was 863.5 ± 0.35 kg/m3.

And the mass density ([1]; 101.3 kPa, x1 = 0.1072)?
The mass density was 864.46 ± 0.35 kg/m3.

And the mass density ([1]; 101.3 kPa, x1 = 0.1826)?
Its mass density is 865.94 ± 0.35 kg/m3.

And the mass density ([1]; 101.3 kPa, x1 = 0.2232)?
The mass density was 866.69 ± 0.36 kg/m3.

What about the mass density ([1]; 101.3 kPa, x1 = 0.2747) of the same compound?
Its mass density is 867.57 ± 0.36 kg/m3.

What about the mass density ([1]; 101.3 kPa, x1 = 0.3426) of the same compound?
Its mass density is 868.66 ± 0.37 kg/m3.

And the mass density ([1]; 101.3 kPa, x1 = 0.4514)?
The mass density was 870.21 ± 0.38 kg/m3.

What about the mass density ([1]; 101.3 kPa, x1 = 0.4907) of the same compound?
Its mass density is 870.73 ± 0.38 kg/m3.

What about the mass density ([1]; 101.3 kPa, x1 = 0.5441) of the same compound?
The mass density was 871.41 ± 0.39 kg/m3.

And the mass density ([1]; 101.3 kPa, x1 = 0.5833)?
Its mass density is 871.86 ± 0.39 kg/m3.

And the mass density ([1]; 101.3 kPa, x1 = 0.6451)?
Its mass density is 872.53 ± 0.4 kg/m3.

What about the mass density ([1]; 101.3 kPa, x1 = 0.7066) of the same compound?
The mass density was 873.14 ± 0.41 kg/m3.

What about the mass density ([1]; 101.3 kPa, x1 = 0.7346) of the same compound?
The mass density was 873.41 ± 0.42 kg/m3.

What about the mass density ([1]; 101.3 kPa, x1 = 0.7898) of the same compound?
The mass density was 873.9 ± 0.43 kg/m3.

What about the mass density ([1]; 101.3 kPa, x1 = 0.8508) of the same compound?
Its mass density is 874.42 ± 0.44 kg/m3.

And the mass density ([1]; 101.3 kPa, x1 = 0.9037)?
The mass density was 874.81 ± 0.45 kg/m3.

What about the mass density ([1]; 101.3 kPa, x1 = 0.956) of the same compound?
The mass density was 875.2 ± 0.46 kg/m3.

And the excess molar enthalpy ([2]; x1 = 0.0547)?
The excess molar enthalpy was -0.0427 ± 0.0044 kJ/mol.

What about the excess molar enthalpy ([2]; x1 = 0.1357) of the same compound?
The excess molar enthalpy was -0.0932 ± 0.006 kJ/mol.

And the excess molar enthalpy ([2]; x1 = 0.1718)?
Its excess molar enthalpy is -0.11 ± 0.0065 kJ/mol.

What about the excess molar enthalpy ([2]; x1 = 0.2389) of the same compound?
Its excess molar enthalpy is -0.14 ± 0.0074 kJ/mol.

What about the excess molar enthalpy ([2]; x1 = 0.2823) of the same compound?
Its excess molar enthalpy is -0.153 ± 0.0078 kJ/mol.

And the excess molar enthalpy ([2]; x1 = 0.3263)?
Its excess molar enthalpy is -0.167 ± 0.0083 kJ/mol.

And the excess molar enthalpy ([2]; x1 = 0.3957)?
Its excess molar enthalpy is -0.176 ± 0.0086 kJ/mol.

What about the excess molar enthalpy ([2]; x1 = 0.4277) of the same compound?
Its excess molar enthalpy is -0.176 ± 0.0086 kJ/mol.

And the excess molar enthalpy ([2]; x1 = 0.5486)?
The excess molar enthalpy was -0.158 ± 0.008 kJ/mol.

And the excess molar enthalpy ([2]; x1 = 0.5841)?
Its excess molar enthalpy is -0.151 ± 0.0078 kJ/mol.

What about the excess molar enthalpy ([2]; x1 = 0.6522) of the same compound?
The excess molar enthalpy was -0.137 ± 0.0074 kJ/mol.

What about the excess molar enthalpy ([2]; x1 = 0.709) of the same compound?
The excess molar enthalpy was -0.123 ± 0.0069 kJ/mol.

What about the excess molar enthalpy ([2]; x1 = 0.7394) of the same compound?
The excess molar enthalpy was -0.114 ± 0.0066 kJ/mol.

And the excess molar enthalpy ([2]; x1 = 0.8031)?
The excess molar enthalpy was -0.0954 ± 0.0061 kJ/mol.

What about the excess molar enthalpy ([2]; x1 = 0.8568) of the same compound?
Its excess molar enthalpy is -0.0766 ± 0.0055 kJ/mol.

And the excess molar enthalpy ([2]; x1 = 0.892)?
The excess molar enthalpy was -0.0547 ± 0.0048 kJ/mol.

What about the excess molar enthalpy ([2]; x1 = 0.9577) of the same compound?
Its excess molar enthalpy is -0.0244 ± 0.0039 kJ/mol.

And the refractive index ([3]; x1 = 0.0625)?
The refractive index was 1.4858 ± 0.0007.

And the refractive index ([3]; x1 = 0.1072)?
The refractive index was 1.4803 ± 0.0007.

What about the refractive index ([3]; x1 = 0.1826) of the same compound?
The refractive index was 1.4712 ± 0.0007.

And the refractive index ([3]; x1 = 0.2232)?
The refractive index was 1.4665 ± 0.0007.

And the refractive index ([3]; x1 = 0.2747)?
The refractive index was 1.4605 ± 0.0007.

What about the refractive index ([3]; x1 = 0.3426) of the same compound?
Its refractive index is 1.4529 ± 0.0007.

What about the refractive index ([3]; x1 = 0.4514) of the same compound?
Its refractive index is 1.4411 ± 0.0007.

And the refractive index ([3]; x1 = 0.4907)?
Its refractive index is 1.437 ± 0.0007.

What about the refractive index ([3]; x1 = 0.5441) of the same compound?
Its refractive index is 1.4316 ± 0.0007.

What about the refractive index ([3]; x1 = 0.5833) of the same compound?
The refractive index was 1.4277 ± 0.0007.

And the refractive index ([3]; x1 = 0.6451)?
Its refractive index is 1.4218 ± 0.0007.

What about the refractive index ([3]; x1 = 0.7066) of the same compound?
Its refractive index is 1.416 ± 0.0007.

And the refractive index ([3]; x1 = 0.7346)?
Its refractive index is 1.4135 ± 0.0007.

And the refractive index ([3]; x1 = 0.7898)?
The refractive index was 1.4085 ± 0.0007.

And the refractive index ([3]; x1 = 0.8508)?
The refractive index was 1.4031 ± 0.0007.

What about the refractive index ([3]; x1 = 0.9037) of the same compound?
The refractive index was 1.3986 ± 0.0007.

And the refractive index ([3]; x1 = 0.956)?
Its refractive index is 1.3942 ± 0.0007.

— the NIST ThermoML archive (doi:10.1016/j.jct.2006.08.011)
